The source of these data is US10568879B2 (GALAPAGOS NV, priority 2015, dated 2020).

pIC50: −log10 of the molar value.

A word on the pIC50: it is −log10 of the IC50, conventionally taken in molar units. Low readings indicate a large IC50, high ones a small IC50.

In the assay the target is T1, GPR84 (Homo sapiens, UniProt Q9NQS5).
T1 construct: expressed in transfected cells
T1 sequence (Q9NQS5 whole entry): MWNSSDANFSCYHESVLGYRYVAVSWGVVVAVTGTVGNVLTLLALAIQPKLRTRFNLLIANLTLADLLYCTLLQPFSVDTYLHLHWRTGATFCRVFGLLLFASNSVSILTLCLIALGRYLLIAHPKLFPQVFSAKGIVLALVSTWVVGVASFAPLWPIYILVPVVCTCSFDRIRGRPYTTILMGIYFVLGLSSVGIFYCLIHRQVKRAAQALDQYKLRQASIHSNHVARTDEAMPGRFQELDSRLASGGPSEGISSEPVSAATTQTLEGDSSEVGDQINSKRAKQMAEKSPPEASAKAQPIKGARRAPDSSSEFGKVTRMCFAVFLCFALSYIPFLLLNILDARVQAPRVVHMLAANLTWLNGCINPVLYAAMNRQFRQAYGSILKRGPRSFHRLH
The experiment in a line: GPR84 [35S]GTPγS binding assay. Format: biochemical. The conditions noted are these: 3,3′-diindolylmethane at EC80; membranes from stable cell line over expressing GPR84. The method, then:
The following assay can be used for determination of GPR84 activation. The [^35S]GTPγS binding assay measures the level of G protein activation following agonist occupation of a GPCR, by determining the binding of the non-hydrolysable analog [^35S]GTPγS to Gα subunits.
The assay is performed in a 96-well plate where the following reagents are added. First 50 μL compound is added into the assay plate, followed by addition of 20 μL 3,3′-diindolylmethane at EC80 concentration (concentration which gives 80% of the activity of GPR84). Then, 30 μL of a mixture consisting of membranes-GTPγS-SpA beads is added [mixture consists of 20 μg/well membranes derived from stable cell line over expressing GPR84 (membranes are pre-incubated with 0.1 μM GDP for 15 min at 4° C.), 0.1 nM [^35S]GTPγS (Perkin Elmer, NEG030) and 0.5 mg/well PVT-WGA SpA beads (Perkin Elmer, RPNQ0001)]. All components are diluted in assay buffer containing 20 mM Tris pH 7.5; 5 mM MgCl2; 250 mM NaCl; 0.05% BSA; 75 μg/mL saponin. After an incubation of 90 min at room temperature, 20 μL CsCl2 0.8 M (MP Biomedicals, 02150589) is added, followed by centrifugation at 2000 rpm during 20 min. Plates are read on a topcount reader (perkin elmer) immediately after centrifugation (readout time, 1 min/well).
Compound `COc1cc2c(cc1OC)-c1c(C)c(=O)cc(NCC3CCCO3)n1CC2` (centres unmarked) [Compound 2, 9,10-dimethoxy-1-methyl-4-(tetrahydrofuran-2-ylmethylamino)-6,7-dihydrobenzo[a]quinolizin-2-one] had a pIC50 of less than 6.00.

`CCc1c2n(c(NCC3CCCO3)cc1=O)CCc1cc(O)ccc1-2` (centres unmarked) [Compound 3, 1-ethyl-9-hydroxy-4-(tetrahydrofuran-2-ylmethylamino)-6,7-dihydrobenzo[a]quinolizin-2-one] showed a negative logarithm of the IC50 (pIC50) of less than 6.00.

Regarding `COc1cc2c(cc1OC)-c1cc(=O)cc(NCC3COCCO3)n1CC2` (centres unmarked) [Compound 5, 4-[([1,4]Dioxan-2-ylmethyl)-amino]-9,10-dimethoxy-6,7-dihydro-pyrido[2,1-a]isoquinolin-2-one], the negative logarithm of the IC50 (pIC50) is less than 6.00.

In the case of `Cc1c2n(c(OCC3CCCO3)cc1=O)CCc1cc(OCC3CCCOC3)ccc1-2` (centres unmarked) [Compound 47, 1-methyl-4-(tetrahydrofuran-2-ylmethoxy)-9-(tetrahydropyran-3-ylmethoxy)-6,7-dihydrobenzo[a]quinolizin-2-one], the pIC50 is 7.00 to 11.00.

Take `Cc1c2n(c(OCC3CCCO3)cc1=O)CCc1cc(OCCN(C)C)ccc1-2` (centres unmarked) [Compound 53, 9-(2-dimethylaminoethyloxy)-1-methyl-4-(tetrahydrofuran-2-ylmethoxy)-6,7-dihydrobenzo[a]quinolizin-2-one]: the pIC50 is less than 6.00.

`Cc1c2n(c(OCC3CCCCO3)cc1=O)CCc1cc(OCCN(C)C)ccc1-2` (centres unmarked) [Compound 54, 9-(2-dimethylaminoethyloxy)-1-methyl-4-(tetrahydropyran-2-ylmethoxy)-6,7-dihydrobenzo[a]quinolizin-2-one] showed a negative-log IC50 (pIC50) of 6.00 to 6.30.

`Cc1c2n(c(OC[C@@H]3COCCO3)cc1=O)CCc1cc(OCCN(C)C)ccc1-2` [Compound 55, 9-(2-dimethylaminoethyloxy)-4-[[(2S)-1,4-dioxan-2-yl]methoxy]-1-methyl-6,7-dihydrobenzo[a]quinolizin-2-one] showed a pIC50 of 6.00 to 6.30.

Take `Cc1c2n(c(OC[C@@H]3COCCO3)cc1=O)CCc1cc(OS(C)(=O)=O)ccc1-2` [Compound 56, [4-[[(2S)-1,4-dioxan-2-yl]methoxy]-1-methyl-2-oxo-6,7-dihydrobenzo[a]quinolizin-9-yl] methanesulfonate]: the pIC50 was 6.30 to 7.00.

On to `Cc1c2n(c(OC[C@@H]3CCCO3)cc1=O)CCc1cc(OCc3ccccn3)ccc1-2` [Compound 57, 1-methyl-9-(2-pyridylmethoxy)-4-[[(2S)-tetrahydrofuran-2-yl]methoxy]-6,7-dihydrobenzo[a]quinolizin-2-one], for which the negative logarithm of the IC50 (pIC50) was 7.00 to 11.00.

`Cc1c2n(c(OC[C@@H]3COCCO3)cc1=O)CCc1cc(OC(F)F)ccc1-2` [Compound 59, 9-(difluoromethoxy)-4-[[(2S)-1,4-dioxan-2-yl]methoxy]-1-methyl-6,7-dihydrobenzo[a]quinolizin-2-one] gave a negative logarithm of the IC50 (pIC50) of 7.00 to 11.00.

In the case of `Cc1c2n(c(OC[C@@H]3COCCO3)cc1=O)CCc1cc(OC[C@@H]3COCCO3)ccc1-2` [Compound 62, 4,9-bis[[(2S)-1,4-dioxan-2-yl]methoxy]-1-methyl-6,7-dihydrobenzo[a]quinolizin-2-one], the negative logarithm of the IC50 (pIC50) is 7.00 to 11.00.

In turn, `Cc1c2n(c(OC[C@@H]3COCCO3)cc1=O)CCc1cc(Sc3ccccc3)ccc1-2` [Compound 64, 4-[[(2S)-1,4-dioxan-2-yl]methoxy]-1-methyl-9-phenylsulfanyl-6,7-dihydrobenzo[a]quinolizin-2-one] had a pIC50 of 7.00 to 11.00.

In the case of `Cc1c2n(c(OC[C@@H]3COCCO3)cc1=O)CCc1cc(N3CCNCC3)ccc1-2` [Compound 66, 4-[[(2S)-1,4-dioxan-2-yl]methoxy]-1-methyl-9-piperazin-1-yl-6,7-dihydrobenzo[a]quinolizin-2-one], the pIC50 was less than 6.00.

Compound `Cc1c2n(c(OC[C@@H]3COCCO3)cc1=O)CCc1cc(S(=O)(=O)c3ccccc3)ccc1-2` [Compound 67, 9-(benzenesulfonyl)-4-[[(2S)-1,4-dioxan-2-yl]methoxy]-1-methyl-6,7-dihydrobenzo[a]quinolizin-2-one] gave a pIC50 of 6.30 to 7.00.
